Experimental data reported in patent US20240415790A1, “A COMPOSITION FOR USE IN THE TREATMENT OF INTERVERTEBRAL DISC HERNIATION” (STAYBLE THERAPEUTICS AB, priority 2020, published 2024).
Values joined by “and” are separate entries in the source; they are usually repeats but may differ in a detail not shown here. Identical values can stand only once.

Test system: NP and disc height of patients' IVDs
Test: Clinical study, T2-weighted MRI of NP intensity and disc height
Format: in vivo, human
Parameters: key to Individual scoring of change in NP intensity, Assessor No. 1 / Individual scoring of change in NP intensity, Assessor No. 2 / Individual scoring of change in NP intensity, Assessor No. 3 / Individual scoring of change in NP intensity, Assessor No. 4: 1, clear reduction; 0, no change
Details: for NP intensity change score at T2-weighted MR imaging, Mean ± SD: score 1 clear reduction, 0 no change, 4 assessors
Protocol: The study was a randomized, double-blinded, placebo-controlled, single ascending dose study with the primary objective to evaluate safety and tolerability following intradiscal injection of LA in Omnipaque or placebo (Omnipaque) in 15 patients with chronic discogenic low back pain. The secondary objective was to assess effects on the NP and disc height using T2-weighted MRI.
All MRI investigations were performed using the same scanner (Siemens 1.5 T Avanto) with the following exceptions: Baseline MRI for one placebo-treated patient and 2 patients given the high dose was acquired in a Siemens Symphony 1.5 T scanner while all other scans were done in the Siemens 1.5 T Avanto scanner. Also, baseline and 3 month MRI were done in the Symphony scanner while the other scans were done in the Avanto scanner in 2 placebo-treated patients and one patient treated with the high dose. T1- and T2-weighted sagittal, coronal, and transversal sections were acquired at 4 mm before and after injection of gadolinium contrast.
Disc height measured as the maximal distance between 2 adjacent endplates and Pfirrmann grade were documented at screening and they were followed throughout the study. Since the Pfirrmann criteria are not sensitive enough to detect minor changes in disc hydration, changes in intensity of the NP at T2-weighted MRI were scored by 4 assessors blind to the group assignment of the patients. The assessors were instructed to score no change as “0” and obvious reduction in intensity as “1”, regardless of time after treatment.
Changes in intensity of the NP at T2-weighted MR imaging were scored as 1, clear reduction and 0, no change. The scoring was done by 4 assessors blind to the group assignment of the patients. Reductions in disc height were observed throughout the study (Table 8).

[1] = LA concentration 30, individual patients and IVDs
[2] = LA concentration 60, individual patients and IVDs
[3] = LA concentration 120, individual patients and IVDs

CC(O)C(=O)O (stereo not shown) [LA, lactic acid]
NP intensity change score, Median (LA 30 mg/mL): 0
Disc height change from baseline (mm) Mean ± SD (LA 30 mg/mL, 3 months): 0.3 ± 1.3 mm
Disc height change from baseline (mm) Mean ± SD (LA 30 mg/mL, 6 months): −0.5 ± 0.7 mm
Disc height change from baseline (mm) Mean ± SD (LA 30 mg/mL, 12 months): −0.5 ± 0.7 mm
NP intensity change score at T2-weighted MR imaging, Mean ± SD (LA 30 mg/mL): 0.4 ± 0.5
NP intensity change score, Median (LA 60 mg/mL): 1
Disc height change from baseline (mm) Mean ± SD (LA 60 mg/mL, 3 months): −1.0 ± 0.7 mm
Disc height change from baseline (mm) Mean ± SD (LA 60 mg/mL, 6 months): −0.8 ± 0.8 mm
Disc height change from baseline (mm) Mean ± SD (LA 60 mg/mL, 12 months): −1.2 ± 0.8 mm
NP intensity change score at T2-weighted MR imaging, Mean ± SD (LA 60 mg/mL): 1.0 ± 0.0
NP intensity change score, Median (LA 120 mg/mL): 1
Disc height change from baseline (mm) Mean ± SD (LA 120 mg/mL, 3 months): −1.2 ± 1.1 mm
Disc height change from baseline (mm) Mean ± SD (LA 120 mg/mL, 6 months): −1.4 ± 1.1 mm
Disc height change from baseline (mm) Mean ± SD (LA 120 mg/mL, 12 months): −1.8 ± 1.3 mm
NP intensity change score at T2-weighted MR imaging, Mean ± SD (LA 120 mg/mL): 0.9 ± 0.3
Individual scoring of change in NP intensity, Assessor No. 1 [1]: 0 (2×) and 1 (2×)
Individual scoring of change in NP intensity, Assessor No. 2 [1]: 0 (3×) and 1
Individual scoring of change in NP intensity, Assessor No. 3 [1]: 0 (2×) and 1 (2×)
Individual scoring of change in NP intensity, Assessor No. 4 [1]: 0 (2×) and 1 (2×)
Individual scoring of change in NP intensity, Assessor No. 1 [2]: 1
Individual scoring of change in NP intensity, Assessor No. 2 [2]: 1
Individual scoring of change in NP intensity, Assessor No. 3 [2]: 1
Individual scoring of change in NP intensity, Assessor No. 4 [2]: 1
Individual scoring of change in NP intensity, Assessor No. 1 [3]: 1
Individual scoring of change in NP intensity, Assessor No. 2 [3]: 1 (3×) and 0 (2×)
Individual scoring of change in NP intensity, Assessor No. 3 [3]: 1
Individual scoring of change in NP intensity, Assessor No. 4 [3]: 1
% decrease in disc height (lactic acid 30 mg/mL, 3 months): +3%
% decrease in disc height (lactic acid 30 mg/mL, 6 months): 5%
% decrease in disc height (lactic acid 30 mg/mL, 12 months): 5%
% decrease in disc height (lactic acid 60 mg/mL, 3 months): 11%
% decrease in disc height (lactic acid 60 mg/mL, 6 months): 8%
% decrease in disc height (lactic acid 60 mg/mL, 12 months): 13%
% decrease in disc height (lactic acid 120 mg/mL, 3 months): 11%
% decrease in disc height (lactic acid 120 mg/mL, 6 months): 12%
% decrease in disc height (lactic acid 120 mg/mL, 12 months): 16%
Change in IVD width (patients, after treatment (not shown)): no change in IVD width
